Biological target: T1, α1L Receptor (Oryctolagus cuniculus, UniProt O02824)
T1 construct: A single rabbit aorta was cleaned of connective tissue, cut into rings; from tissue; host or cells: rabbit aorta rings
T1 sequence (O02824 1-466): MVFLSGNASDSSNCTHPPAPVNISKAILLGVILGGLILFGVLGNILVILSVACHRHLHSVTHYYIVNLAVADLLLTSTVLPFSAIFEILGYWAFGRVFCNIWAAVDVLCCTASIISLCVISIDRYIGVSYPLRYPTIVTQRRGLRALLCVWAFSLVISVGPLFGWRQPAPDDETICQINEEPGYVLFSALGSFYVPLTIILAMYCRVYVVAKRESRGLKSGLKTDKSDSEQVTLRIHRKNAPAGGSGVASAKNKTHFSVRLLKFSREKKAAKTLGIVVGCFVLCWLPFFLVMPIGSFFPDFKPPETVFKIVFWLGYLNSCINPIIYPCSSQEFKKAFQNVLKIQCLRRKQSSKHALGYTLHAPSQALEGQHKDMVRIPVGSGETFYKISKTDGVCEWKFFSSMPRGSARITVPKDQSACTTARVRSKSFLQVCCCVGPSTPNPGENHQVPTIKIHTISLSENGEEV
Test: Contractile responses of rabbit aorta (methoxamine-induced), antagonist pA2
Settings: rabbit aorta rings, methoxamine as agonist, 60 minutes with compound, Schild analysis; read-out: pA2 v α1L (converted)
Description: Contractile Responses of Rabbit Aorta (α1L Receptor)
A single rabbit aorta was cleaned of connective tissue, cut into rings ˜3 mm in length, then denuded of […] by rubbing very gently with a probe. The lengths of tissue are then mounted in the 5 mL organ baths, which contain the modified Krebs of the following composition (mM): NaCl (119), KCl (4.7), CaCl2 (2.5), KH2PO4 (1.2), MgSO4 (1.2), NaHCO3 (25), glucose (11), and gassed with 95% O2/5% CO2. The tissues are placed under ˜1.5 g tension, and are left to equilibrate for ˜60 minutes on a pump speed of ˜5 mL\minute, adjusting the tension to 1-1.5 g if necessary after 15 and 45 minutes. A 1M stock solution (1×10^−3M bath conc.) of methoxamine in water was made and 1:10 dilutions made using the same diluent. A sensitising dose of 120 mM KCl (bath concentration) was added to each bath. After the maximum response had been reached (usually about 6-8 minutes), the tissues are washed with Krebs solution for 60 minutes, pump speed at ˜2.97 mL/min. […]
The data was captured on ADA analysis in-vitro software, which expresses the readings as a % of the maximum response of the control curve, draws control and test compound dose response curves, and calculates a EC50 and then dose ratio (DR), the ratio between control and treatment curve EC50, for each treatment. […]

COc1cc(C2CC2)c2c(=O)[nH]c(N3CCc4nc(CN5CCOCC5)ccc4C3)nc2c1 [Example 11, 5-Cyclopropyl-7-methoxy-2-(2-morpholin-4-ylmethyl-7,8-dihydro[1,6]-naphthyridin-6(5H)-yl)-4(3H)-quinazolinone]
Kb: 0.1 nM
